“Also recorded” adds a separate entry of the source.

These results are taken from patent publication US5602156A, “Method for inhibiting metalloproteinase expression” (The United States of America as represented by the …, priority 1994, dated 1997).

Data set [1] has as its system gelatinase activity of the metalloproteinases. Kind of data set: Zymogram slices incubated with compound 1 or calcium chelators in the activating buffer (direct inhibition of enzyme). In kind it is biochemical, human. The following applies: 10 mM chelator in incubation buffer; data not shown. As for the experimental part: See, Felder, et al., J. Pharm. Exp. Therapeut. 257:967-971 (1991) and unpublished observations by the inventors.
Gelatin zymography was carded out using control conditioned media from A2058 cells and HT1080 cells in the absence of compound 1. Zymogram slices were incubated in low salt collagenase buffer with control (DMSO 0.1%), an inhibitory dose of compound 1 (20 μM), or the calcium chelators EGTA (10 mM) and EDTA (10 mM). […] See, Brown, et al., Cancer Res. 50:6184-6191 (1990). […] Lane 1 for each of the zymograms corresponds to A2058 while lane 2 corresponds to HT1080.

For data set [2] the test system is unchanged. The following applies: EDTA in incubation buffer; shown by others; cited from earlier work.
For data set [3], the system named is interstitial collagenase, MMP-1. The note with it: human melanoma and fibrosarcoma cells; cited from earlier work.
Data set [4] concerns MMP-2. The following applies: cited from earlier work; for MMP-2 induction/inhibition: human melanoma and fibrosarcoma cells.
In data set [5] the test system is receptor-operated and voltage-gated calcium influx. The note with it: cited from earlier work.
Another data set has as its system arachidonic acid release. The note with it: cited from earlier work.
Data set [6] relates to MMP-2. Kind of data set: Gelatin zymography of conditioned media from human cancer cell lines (gelatinase activity). It counts as cell-based. Here is the method:
(§1) Conditioned media for zymogram and Western blot analysis were produced under serum-free conditions. Cells (2 million) were plated in 25 cm^2 flasks in serum-containing medium and cultured overnight. Serum-containingmedium was removed and the cell monolayers were washed twice with DMEM/ITS (DMEM containing insulin (5 μg/mL), transferrin (5 μg/mL), and selenium (5 ng/mL)). The resultant cells were fed with 3 mL of DMEM/ITS and additives as described in the Examples for two 24 hour periods. Conditioned media samples were collected at 24 hours and cells were refed with fresh DMEM/ITS containing the described additives for an additional 24 hours. Conditioned media samples were centrifuged to remove cells and debris then frozen at -20° C. until use. Freeze and thaw cycles of the conditioned media were limited to no more than two.
Quantitation of the effect was evaluated by laser densitometry of the resultant zymograms.
Aliquots of conditioned medium (15 μL) were electrophoresed on gelatin-containing 10% PAGE gels under nonreducing but denaturing conditions. These conditions allow the different gelatin-degrading species (MMPs) to separate by size. […] Bands of clearing, seen after Coomassie blue staining correspond to areas of gelatinase activity.
OVCAR3 conditioned media samples were concentrated 10-fold prior to zymography.
Known concentrated conditioned medium from HT1080 cells was used for identification of the gelatinase species as marked in FIG. 1A: 92 kDa, gelatinase B/MMP-9; 72 kDa, gelatinase A/MMP-2 latent form; 65 kDa intermediate and 62 kDa activated forms of MMP-2. The activated form of MMP-2 results from cleavage of the amino terminal domain.
Lane 1 corresponds to cells treated only with 0.05% DMSO as a control.
Quantitation of the zymograms in FIGS. 1A-1C were carded out using laser densitometry.
The effect of structural analogs on the gelatinase activity of A2058 cells was similarly evaluated.

A further data set concerns phospholipase C-γ. The note with it: cited from earlier work.
Data set [7] concerns MMP-2. Nature of the data set: Gelatin zymography of HT1080 cells, compound 1 with or without TGF-β1 (densitometry). The note with it: TGF-β alone (0 hr compound 1), control band = 100%. It counts as cell-based, human. Here is the method:
as §1
(§2) A2058 human melanoma cells, human HT1080 fibrosarcoma cells, and OVCAR3 human ovarian cancer cells were incubated with increasing concentrations of compound 1 (0.2-20 μM) or DMSO control (0.05%) and subjected to gelatin zymography. Aliquots of conditioned medium (15 μL) were electrophoresed on gelatin-containing 10% PAGE gels under nonreducing but denaturing conditions. These conditions allow the different gelatin-degrading species (MMPs) to separate by size. The enzymes renature after removal of the SDS by incubation of the gel with 2.5 % Triton X-100, and degrade the gelatin substrate present in the polyacrylamide gel upon overnight incubation in low salt collagenase buffer. Bands of clearing, seen after Coomassie blue staining correspond to areas of gelatinase activity.
(§3) A2058 and HT1080 cells were incubated with compound 1 (2 μM), with or without TGF-β1 (5 ng/mL) for 24 and 48 hours prior to harvest of conditioned media. Aliquots were subjected to gelatin zymography as described in Example 1. Known concentrated conditioned medium from HT1080 cells was used for identification of the gelatinase species (92 kDa, gelatinase B/MMP-9; 72 kDa, gelatinase A/MMP-2 latent form; 65 kDa intermediate and 62 kDa activated forms of MMP-2).
(§4) Lane 1 is the control resulting from treatment of the cells with 0.1% DMSO. Lanes 2 and 3 correspond to those cells which are treated with 2 μM compound 1 in the absence of TGF-β1 for 24 and 48 hours, respectively. Lane 4 corresponds to cells which have been treated with TGF-β1 in the absence of compound 1. Lane 5 corresponds to cells which have been treated with TGF-β1 for 48 hours with compound 1 being added to the incubation mixture for the final 24 hours. Lane 6 corresponds to cells which have been treated for 48 hours with both TGF-β1 and compound 1.
(§5) *The control band was defined as 100% gelatinase activity and the other
(§6) bands were normalized to it. Numbers reflect triplicate measurements from
(§7) each zymogram band of representative zymograms. Standard deviations, not

Data set [8] has as its system MMP-2. Nature of the data set: Gelatin zymography of A2058 cells, compound 1 with or without TGF-β1 (densitometry). In kind it is cell-based, human. The note with it: TGF-β1 alone (0 hr compound 1), control band = 100%. As for the experimental part:
as §1, §2, §3, §4, §5, §6, §7

For a further data set, the system named is gelatinase activity. Kind of data set: Gelatin zymography of A2058 and HT1080 cells, compound 1 with or without TGF-β1 (results in words). It counts as cell-based, human. The following applies: TGF-β1 (5 ng/mL) alone for 48 hr. Here is the method:
as §3, §4

The test system of another data set is MMP-9. Kind of data set: Gelatin zymography of HT1080 cells, compound 1 with or without TGF-β1 (densitometry), 92 kDa. It counts as cell-based, human. The following applies: TGF-β alone (0 hr compound 1), control band = 100%. As for the experimental part:
as §1, §2, §3, §4, §5, §6, §7

For `O=C(O)CN(CCOCCOCCN(CC(=O)O)CC(=O)O)CC(=O)O` [EGTA, ethylenebis(oxyethylenenitrilo)tetraacetic acid, reference compound], in data set [1], the “requirement for metal ion in the activation buffer” value is reported as “confirmed the requirement for metal ion (Ca^++) in the activation buffer”.
Turning to `O=C(O)CN(CCN(CC(=O)O)CC(=O)O)CC(=O)O` [EDTA, ethylenediamine tetraacetic acid, reference compound], the “inhibition of gelatinolytic activity” value in data set [2] is “inhibit gelatinolytic activity”. For the same compound, the “requirement for metal ion in the activation buffer” value in data set [1] is “confirmed the requirement for metal ion (Ca^++) in the activation buffer”.
For the compound `CCCCCCCCCCCCCC(=O)OC1C(C)C2(O)C(C=C(CO)CC3(O)C(=O)C(C)=CC32)C2C(C)(C)C12OC(C)=O` (stereo not shown) [TPA, 12-O-tetradecanoylphorbol-13-acetate, reference compound], the MMP-1 induction/inhibition result in data set [3] is given as “induction of MMP-1”. Besides, the MMP-2 induction/inhibition entry in the data set with MMP-2 [4] is “inhibition of MMP-2”.
As for `COc1ccc(CCCOC(Cn2ccnc2)c2ccc(OC)cc2)cc1` (stereo not shown) [Compound 2, reference compound], in data set [5], the calcium influx inhibition entry is “inhibited; also recorded: effective inhibitor of receptor-operated calcium channels with reactivity against some voltage-gated calcium channels”. In the data set with arachidonic acid release, the arachidonic acid release entry is reported as “inhibited”. In addition, the MMP-2 activity result in the data set on MMP-2 [6] (A2058, 10 μM (FIG. 1E)) was “reduced MMP-2 activity”. Further, in the data set with MMP-2 [6] (zymograms of FIG. 1), the “inhibition of MMP-2 gelatinase activity (FIG. 1)” value was “inhibition”. Further, in the data set on phospholipase C-γ, the “tyrosine phosphorylation with activation of phospholipase C-γ” value is “inhibited”.
Take TGF-β1: transforming growth factor-β1: in the data set with MMP-2 [7], the “gelatinase activity, 65 + 62 kDa” value came out at 192% and the “gelatinase activity, 72 kDa” value is listed as 47%. For the same compound, the MMP-1 induction/inhibition entry in [3] was “inhibition of the interstitial collagenase, MMP-1”. Also, in the data set with MMP-2 [8], the “gelatinase activity, 65 + 62 kDa” value is listed as 0% and the “gelatinase activity, 72 kDa” value amounted to 68%. The gelatinase activity entry in the data set on gelatinase activity was “increased gelatinase activity”. In addition, the “gelatinase activity, 92 kDa” value in the data set on MMP-9 is 64%. In addition, the “production of MMP-2 by stimulation of RNA expression” value with MMP-2 [4] (cell type not stated) was “stimulate production of MMP-2 by stimulation of RNA expression”. In addition, the MMP-2 induction/inhibition result in the data set with MMP-2 [4] is given as “induction of MMP-2”.
